Assay results reported in publication PMC6218581, “Resurrecting the Regulatory Properties of the Ostreococcus tauri ADP-Glucose Pyrophosphorylase Large Subunit” (Frontiers in Plant Science, 2018).

Key:
[1] = molecular target: T1, OtaS/OtaL ADP-Glc PPase (Ostreococcus tauri, UniProt A0A090M9E5+A0A096P9X2, A0A096P9X2:L24M); set-up: gene OT_ostta07g03070; conditions: read-out: I0.5; allosteric inhibitor; 3PGA present at its A0.5 (0.61 mM); 50 mM HEPPS pH 8.0, 10 mM MgCl2, 1 mM Glc1P, 2.5 mM ATP, 37°C
T1 sequence (A0A090M9E5 entry or part of it): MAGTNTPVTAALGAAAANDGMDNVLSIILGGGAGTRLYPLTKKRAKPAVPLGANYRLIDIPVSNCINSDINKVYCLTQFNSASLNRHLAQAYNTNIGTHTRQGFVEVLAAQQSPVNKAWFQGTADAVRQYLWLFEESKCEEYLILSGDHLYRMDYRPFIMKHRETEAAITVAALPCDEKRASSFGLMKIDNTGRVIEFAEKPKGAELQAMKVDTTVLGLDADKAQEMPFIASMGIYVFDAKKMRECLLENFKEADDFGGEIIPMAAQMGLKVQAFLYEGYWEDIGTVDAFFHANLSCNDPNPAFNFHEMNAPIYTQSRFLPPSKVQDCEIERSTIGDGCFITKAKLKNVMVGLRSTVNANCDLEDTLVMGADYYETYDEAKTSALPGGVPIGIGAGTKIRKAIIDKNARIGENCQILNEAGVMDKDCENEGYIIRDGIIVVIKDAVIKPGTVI
T1 sequence (A0A096P9X2 entry or part of it L24M): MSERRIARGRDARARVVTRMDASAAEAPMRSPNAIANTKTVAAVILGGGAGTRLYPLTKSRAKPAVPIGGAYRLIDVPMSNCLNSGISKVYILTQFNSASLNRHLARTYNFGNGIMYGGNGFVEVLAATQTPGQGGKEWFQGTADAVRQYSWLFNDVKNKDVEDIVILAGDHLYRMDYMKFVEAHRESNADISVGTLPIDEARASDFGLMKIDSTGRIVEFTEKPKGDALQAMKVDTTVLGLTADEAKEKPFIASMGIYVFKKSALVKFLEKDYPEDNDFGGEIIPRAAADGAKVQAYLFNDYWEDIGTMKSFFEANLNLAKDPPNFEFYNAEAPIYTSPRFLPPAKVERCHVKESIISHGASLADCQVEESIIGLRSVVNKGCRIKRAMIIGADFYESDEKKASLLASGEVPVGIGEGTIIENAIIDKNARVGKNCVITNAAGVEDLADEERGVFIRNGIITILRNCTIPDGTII
From the text: (§1) ADP-Glc PPase activity, inhibition curve, Hill fit on OtaS/OtaL ADP-Glc PPase

[2] = molecular target: T2, OtaS/OtaL ADP-Glc PPase (Ostreococcus tauri, UniProt A0A090M9E5+A0A096P9X2, A0A096P9X2:L24M/A0A090M9E5:K508R); set-up: gene OT_ostta07g03070; conditions: read-out: I0.5; allosteric inhibitor; 3PGA present at its A0.5 (1.6 mM); 50 mM HEPPS pH 8.0, 10 mM MgCl2, 1 mM Glc1P, 2.5 mM ATP, 37°C
T2 sequence (A0A090M9E5 entry or part of it K508R): as the sequence (A0A090M9E5 entry or part of it) above, with K443R counted along it
T2 sequence (A0A096P9X2 entry or part of it L24M): as the sequence (A0A096P9X2 entry or part of it L24M) above
From the text: as §1

[3] = molecular target: T3, OtaS/OtaL ADP-Glc PPase (Ostreococcus tauri, UniProt A0A090M9E5+A0A096P9X2, A0A096P9X2:R476K/A0A090M9E5:K508R, form not given); assay: ADP-[…]Glc formation, activation curve, Hill fit; assay type: biochemical; conditions: allosteric activator; 50 mM HEPPS pH 8.0, 10 mM MgCl2, 1 mM Glc1P, 2.5 mM ATP, 37°C, no Pi; read-out: A0.5
T3 construct: gene OT_ostta07g03070; heterotetramer alpha2beta2, co-expressed from pMAB5/OtaS and pMAB6/OtaL in E. coli AC70R1-504; DEAE and Resource PHE purification, no tag mentioned
T3 sequence (A0A096P9X2 entry or part of it R476K, form open): as the sequence (A0A096P9X2 entry or part of it L24M) above, with M1L, R453K counted along it
T3 sequence (A0A090M9E5 entry or part of it K508R, form open): as the sequence (A0A090M9E5 entry or part of it) above, with K443R counted along it

[4] = molecular target: T4, OtaS/OtaL ADP-Glc PPase (Ostreococcus tauri, UniProt A0A090M9E5+A0A096P9X2, A0A096P9X2:R476K, form not given); assay: ADP-[…]Glc formation, activation curve, Hill fit; assay type: biochemical; conditions: allosteric activator; 50 mM HEPPS pH 8.0, 10 mM MgCl2, 1 mM Glc1P, 2.5 mM ATP, 37°C, no Pi; read-out: A0.5
T4 construct: gene OT_ostta07g03070; heterotetramer alpha2beta2, co-expressed from pMAB5/OtaS and pMAB6/OtaL in E. coli AC70R1-504; DEAE and Resource PHE purification, no tag mentioned
T4 sequence (A0A096P9X2 entry or part of it R476K, form open): as the sequence (A0A096P9X2 entry or part of it L24M) above, with M1L, R453K counted along it
T4 sequence (A0A090M9E5 entry or part of it, form open): as the sequence (A0A090M9E5 entry or part of it) above

[5] = molecular target: T5, StuSK441A/OtaL hybrid heterotetramer (Solanum tuberosum; Ostreococcus tauri, UniProt A0A096P9X2+P23509, A0A096P9X2:R476K/P23509:K511A, form not given); assay: ADP-[…]Glc formation, activation curve, Hill fit; assay type: biochemical; conditions: read-out: A0.5; allosteric activator; 50 mM HEPPS pH 8.0, 10 mM MgCl2, 1 mM Glc1P, 2.5 mM ATP, 2 mM DTT, 37°C, no Pi
T5 construct: hybrid heterotetramer: potato tuber small subunit K441A co-expressed with O. tauri large subunit in E. coli AC70R1-504; purified
T5 sequence (P23509 73-521 K511A, form open): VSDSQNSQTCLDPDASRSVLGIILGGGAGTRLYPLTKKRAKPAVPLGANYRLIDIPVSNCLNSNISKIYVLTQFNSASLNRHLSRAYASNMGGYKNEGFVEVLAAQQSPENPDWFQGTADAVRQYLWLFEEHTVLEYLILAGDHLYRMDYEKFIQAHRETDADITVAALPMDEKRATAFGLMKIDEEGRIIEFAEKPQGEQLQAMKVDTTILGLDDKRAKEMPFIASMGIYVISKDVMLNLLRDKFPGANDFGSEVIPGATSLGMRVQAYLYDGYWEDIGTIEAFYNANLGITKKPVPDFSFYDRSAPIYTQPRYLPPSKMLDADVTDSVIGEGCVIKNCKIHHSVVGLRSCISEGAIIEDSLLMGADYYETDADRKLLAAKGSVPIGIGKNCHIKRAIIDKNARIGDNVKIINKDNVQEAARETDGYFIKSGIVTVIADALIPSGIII
T5 sequence (A0A096P9X2 entry or part of it R476K, form open): as the sequence (A0A096P9X2 entry or part of it L24M) above, with M1L, R453K counted along it

[6] = molecular target: T6, StuSK441A/OtaL hybrid heterotetramer (Solanum tuberosum; Ostreococcus tauri, UniProt A0A096P9X2+P23509, A0A096P9X2:L24M/P23509:K511A); assay: ADP-[…]Glc formation, activation curve, Hill fit; assay type: biochemical; conditions: read-out: A0.5; allosteric activator; 50 mM HEPPS pH 8.0, 10 mM MgCl2, 1 mM Glc1P, 2.5 mM ATP, 2 mM DTT, 37°C, no Pi
T6 construct: hybrid heterotetramer: potato tuber small subunit K441A co-expressed with O. tauri large subunit in E. coli AC70R1-504; purified
T6 sequence (A0A096P9X2 entry or part of it L24M): as the sequence (A0A096P9X2 entry or part of it L24M) above
T6 sequence (P23509 73-521 K511A): as the sequence (P23509 73-521 K511A, form open) above

[7] = molecular target: T1, OtaS/OtaL ADP-Glc PPase; assay: ADP-[…]Glc formation, activation curve, Hill fit; assay type: biochemical; set-up: gene OT_ostta07g03070; heterotetramer alpha2beta2, co-expressed from pMAB5/OtaS and pMAB6/OtaL in E. coli AC70R1-504; DEAE and Resource PHE purification, no tag mentioned; conditions: allosteric activator; 50 mM HEPPS pH 8.0, 10 mM MgCl2, 1 mM Glc1P, 2.5 mM ATP, 37°C, no Pi; read-out: A0.5
[8] = molecular target: T2, OtaS/OtaL ADP-Glc PPase; assay: ADP-[…]Glc formation, activation curve, Hill fit; assay type: biochemical; set-up: gene OT_ostta07g03070; heterotetramer alpha2beta2, co-expressed from pMAB5/OtaS and pMAB6/OtaL in E. coli AC70R1-504; DEAE and Resource PHE purification, no tag mentioned; conditions: allosteric activator; 50 mM HEPPS pH 8.0, 10 mM MgCl2, 1 mM Glc1P, 2.5 mM ATP, 37°C, no Pi; read-out: A0.5

IC50 [1] [µM]	IC50 [2] [µM]	EC50 [3] [µM]	EC50 [4] [µM]	EC50 [5] [µM]	EC50 [6] [µM]	EC50 [7] [µM]	EC50 [8] [µM]	SMILES
179 ± 4	1600 ± 200	–	–	–	–	–	–	O=P(O)(O)O [Pi]
–	–	740 ± 80	190 ± 10	400 ± 20	1200 ± 100	610 ± 30	1600 ± 600	O=C(O)[C@H](O)COP(=O)(O)O [3PGA]
